The results in this text go back to US10329309B2, “3-(3H-imidazo[4,5-B]pyridin-2-yl)-1H-pyrazolo[4,3-B]pyridines and therapeutic uses thereof” (Samumed, LLC, priority 2015, dated 2019).

The structures appear in SMILES notation.

The test concerns IL-6 (THP-1 cells). Nature of the test: Inhibition of IL-6 in LPS-stimulated THP-1 monocytes (HTRF). The test is classed as cell-based. As to conditions: Homo sapiens; for EC50: LPS 500 ng/mL, IL-6 by HTRF; for inhibition at 10 µM: LPS stimulated, IL-6, at 10 μM, read-out: percent inhibition at 10 μM (given for EC50 of >10 μM). On the procedure:
Human monocyte cell line (THP-1 cells; Catalog # TIB-202, ATCC, Manassas, Va.) were cultured in Roswell Park Memorial Institute (RPMI) 1640 Medium (Catalog #21870-100, Buffalo, N.Y.) with 1% L-glutamine, 1% HEPES, 1% Sodium Pyruvate, 2% Sodium Bicarbonate supplemented with 100 units/mL penicillin, 50 μg/mL streptomycin, 2-mercaptoethanol (0.05 mM) [basal medium] and 10% fetal bovine serum (Catalog #16140089, Life Technologies, Carlsbad, Calif.) at 37° C. and 5% CO2.
THP-1 cells were cultured in basal media with 1% FBS for 24 hours before the start of the assay. Each compound was dissolved in DMSO as a 10 mM stock and used to prepare compound source plates. Serial dilution (1:3, 10-point dose-response curves starting from 10 μM) and compound transfer was performed using the ECHO 550 (Labcyte, Sunnyvale, Calif.) into 384-well white low volume assay plates (Greiner Bio-One) with appropriate DMSO backfill for a final DMSO concentration of 0.1%. THP-1 cells were plated at 5000 cells/well in the 384-well plates and incubated at 37° C. for 2 h. 500 ng/mL of LPS was added after 2 hours and cells were incubated for another 22 hours at 37° C. Plates were spun in a centrifuge for 1 minute at […] and a mixture of anti-IL6 XL665, and anti-IL6 Cryptate diluted in reconstitution buffer (Cisbio Inc.) was added to each well. Following incubation for 3 hrs at room temperature, Homogeneous Time-Resolved Fluorescence (HTRF) was measured using the Envision (Perkin Elmer) at 665 nm and […]. The ratio of fluorescence at 665 nm to 620 nm was used as a readout for IL6 quantification. All samples were processed in duplicate. Readings were normalized to DMSO treated cells and normalized activities were utilized for EC50 calculations using the dose-response log (inhibitor) vs. response -variable slope (four parameters) nonlinear regression feature available in GraphPad Prism 5.0 (or Dotmatics). For EC50 of >10 μM, the percent inhibition at 10 μM is provided.

The term EC50 denotes the midpoint of the concentration-response curve. The low end stands for a more potent agent, the high end for a less potent agent. Usually inhibition stands for the relative decrease from the control value, in per cent.

Take `O=C(Nc1cncc(-c2ccc3[nH]nc(-c4nc5c(-c6cccc(F)c6)ccnc5[nH]4)c3n2)c1)C1CC1` [Compound 20, N-(5-(3-(7-(3-Fluorophenyl)-3H-imidazo[4,5-b]pyridin-2-yl)-1H-pyrazolo [4,3-b]pyridin-5-yl)pyridin-3-yl)cyclopropanecarboxamide]: the concentration for a half-maximal effect (EC50) was > 10 µM and the inhibition at 10 µM came to 16%. In turn, `O=C(Nc1cncc(-c2ccc3[nH]nc(-c4nc5c(-c6ccccc6F)ccnc5[nH]4)c3n2)c1)C1CCCC1` [Compound 78, N-(5-(3-(7-(2-fluorophenyl)-3H-imidazo[4,5-b]pyridin-2-yl)-1H-pyrazolo [4,3-b]pyridin-5-yl)pyridin-3-yl)cyclopentanecarboxamide] had a 50% effective concentration (EC50) of 7.92 µM. This lies in the single-digit micromolar range. For `c1cc(-c2ccc3[nH]nc(-c4nc5c(-c6ccncc6)ccnc5[nH]4)c3n2)ccn1` [Compound 130, 5-(pyridin-4-yl)-3-(7-(pyridin-4-yl)-3H-imidazo[4,5-b]pyridin-2-yl)-1H-pyrazolo [4,3-b]pyridine], the concentration for a half-maximal effect (EC50) is > 10 µM and the inhibition at 10 µM stood at 18.9%. The matching figures for `O=C(Nc1cncc(-c2ccc3[nH]nc(-c4nc5c(-c6ccccn6)ccnc5[nH]4)c3n2)c1)c1ccccc1` [Compound 151, N-(5-(3-(7-(Pyridin-2-yl)-3H-imidazo[4,5-b]pyridin-2-yl)-1H-pyrazolo[4,3-b]pyridin-5-yl)pyridin-3-yl)benzamide]: > 10 µM and 39.1%. The matching figures for `CN1CCN(c2ccnc3[nH]c(-c4n[nH]c5ccc(-c6cncc(NC(=O)C7CCCC7)c6)nc45)nc23)CC1` [Compound 246, N-(5-(3-(7-(4-Methylpiperazin-1-yl)-3H-imidazo[4,5-b]pyridin-2-yl)-1H-pyrazolo[4,3-b]pyridin-5-yl)pyridin-3-yl)cyclopentanecarboxamide]: > 10 µM and 15.7%. The matching figures for `CN1CCN(c2ccnc3[nH]c(-c4n[nH]c5ccc(-c6cncnc6)nc45)nc23)CC1` [Compound 251, 3-(7-(4-Methylpiperazin-1-yl)-3H-imidazo[4,5-b]pyridin-2-yl)-5-(pyrimidin-5-yl)-1H-pyrazolo[4,3-b]pyridine]: > 10 µM and 8.3%. As for `O=C(Cc1ccccc1)Nc1cncc(-c2ccc3[nH]nc(-c4nc5cccnc5[nH]4)c3n2)c1` [Compound 262, N-(5-(3-(3H-imidazo[4,5-b]pyridin-2-yl)-1H-pyrazolo[4,3-b]pyridin-5-yl)pyridin-3-yl)-2-phenylacetamide], the concentration giving a half-maximal response (EC50) is > 10 µM and the inhibition at 10 µM came to 17.3%. The matching figures for `CC(C)(C)CC(=O)Nc1cncc(-c2ccc3[nH]nc(-c4nc5cccnc5[nH]4)c3n2)c1` [Compound 268, N-(5-(3-(3H-Imidazo[4,5-b]pyridin-2-yl)-1H-pyrazolo[4,3-b]pyridin-5-yl)pyridin-3-yl)-3,3-dimethylbutanamide]: > 10 µM and 32.5%. The matching figures for `O=C(Nc1cncc(-c2ccc3[nH]nc(-c4nc5cccnc5[nH]4)c3n2)c1)C1CCCCC1` [Compound 275, N-(5-(3-(3H-Imidazo[4,5-b]pyridin-2-yl)-1H-pyrazolo[4,3-b]pyridin-5-yl)pyridin-3-yl)cyclohexanecarboxamide]: > 10 µM and 33.1%. For `Cc1ccc(-c2ccnc3[nH]c(-c4n[nH]c5ccc(-c6cncc(NC(=O)C7CCCC7)c6)nc45)nc23)s1` [Compound 414, N-(5-(3-(7-(5-Methylthiophen-2-yl)-3H-imidazo[4,5-b]pyridin-2-yl)-1H-pyrazolo[4,3-b]pyridin-5-yl)pyridin-3-yl)cyclopentanecarboxamide], a half-maximal response (EC50) required 1.85 µM. `CN(C)CCNc1cc(F)cc(-c2ccnc3[nH]c(-c4n[nH]c5ccc(-c6ccccn6)nc45)nc23)c1` [Compound 476, N^1-(3-Fluoro-5-(2-(5-(pyridin-2-yl)-1H-pyrazolo[4,3-b]pyridin-3-yl)-3H-imidazo[4,5-b]pyridin-7-yl)phenyl)-N^2,N^2-dimethylethane-1,2-diamine]: the 50% effective concentration (EC50) was > 10 µM and the inhibition at 10 µM is 33%. For `CS(=O)(=O)NCc1cc(F)cc(-c2ccnc3[nH]c(-c4n[nH]c5ccc(-c6cncc(NC(=O)c7ccccc7)c6)nc45)nc23)c1` [Compound 487, N-(5-(3-(7-(3-Fluoro-5-(methylsulfonamidomethyl)phenyl)-3H-imidazo[4,5-b]pyridin-2-yl)-1H-pyrazolo[4,3-b]pyridin-5-yl)pyridin-3-yl)benzamide], the EC50 is > 10 µM and the inhibition at 10 µM is 0%. The matching figures for `CS(=O)(=O)NCc1cc(F)cc(-c2ccnc3[nH]c(-c4n[nH]c5ccc(-c6cncnc6)nc45)nc23)c1` [Compound 503, N-(3-Fluoro-5-(2-(5-(pyrimidin-5-yl)-1H-pyrazolo[4,3-b]pyridin-3-yl)-3H-imidazo[4,5-b]pyridin-7-yl)benzyl)methanesulfonamide]: > 10 µM and 29.6%.

With `c1cncc(-c2ccnc3[nH]c(-c4n[nH]c5ccc(-c6cncc(OC7CCCCC7)c6)nc45)nc23)c1` [Compound 559, 5-(5-(Cyclohexyloxy)pyridin-3-yl)-3-(7-(pyridin-3-yl)-3H-imidazo[4,5-b]pyridin-2-yl)-1H-pyrazolo[4,3-b]pyridine], the concentration giving a half-maximal response (EC50) is > 10 µM and the inhibition at 10 µM is 31.6%.

Turning to `Oc1cncc(-c2ccc3[nH]nc(-c4nc5c(-c6cccnc6)ccnc5[nH]4)c3n2)c1` [Compound 565, 5-(3-(7-(Pyridin-3-yl)-3H-imidazo[4,5-b]pyridin-2-yl)-1H-pyrazolo[4,3-b]pyridin-5-yl)pyridin-3-ol], the EC50 is 9.48 µM. That is a single-digit micromolar value. For `c1cc(-c2ccnc3[nH]c(-c4n[nH]c5ccc(-c6cncc(OC7CCNCC7)c6)nc45)nc23)ccn1` [Compound 576, 5-(5-(Piperidin-4-yloxy)pyridin-3-yl)-3-(7-(pyridin-4-yl)-3H-imidazo[4,5-b]pyridin-2-yl)-1H-pyrazolo[4,3-b]pyridine], the EC50 was > 10 µM and the inhibition at 10 µM came out at 38.1%. As to `c1ccc(COc2cncc(-c3ccc4[nH]nc(-c5nc6c(-c7ccncc7)ccnc6[nH]5)c4n3)c2)cc1` [Compound 582, 5-(5-(Benzyloxy)pyridin-3-yl)-3-(7-(pyridin-4-yl)-3H-imidazo[4,5-b]pyridin-2-yl)-1H-pyrazolo[4,3-b]pyridine], the half-maximal effective concentration (EC50) is > 10 µM and the inhibition at 10 µM is 3.2%. The matching figures for `c1cc(-c2ccnc3[nH]c(-c4n[nH]c5ccc(-c6cnccn6)nc45)nc23)ccn1` [Compound 584, 5-(Pyrazin-2-yl)-3-(7-(pyridin-4-yl)-3H-imidazo[4,5-b]pyridin-2-yl)-1H-pyrazolo[4,3-b]pyridine]: > 10 µM and 22%. For `O=C(CC1CCNCC1)Nc1cncc(-c2ccc3[nH]nc(-c4nc5c(-c6ccccn6)ccnc5[nH]4)c3n2)c1` [Compound 593, 2-(Piperidin-4-yl)-N-(5-(3-(7-(pyridin-2-yl)-3H-imidazo[4,5-b]pyridin-2-yl)-1H-pyrazolo[4,3-b]pyridin-5-yl)pyridin-3-yl)acetamide], the EC50 was > 10 µM and the inhibition at 10 µM amounted to 41.8%. On the same counts, the results for `c1cc(N2CCCCC2)c2nc(-c3n[nH]c4ccc(-c5cncc(OCCN6CCCC6)c5)nc34)[nH]c2n1` [Compound 610, 3-(7-(Piperidin-1-yl)-3H-imidazo[4,5-b]pyridin-2-yl)-5-(5-(2-(pyrrolidin-1-yl)ethoxy)pyridin-3-yl)-1H-pyrazolo[4,3-b]pyridine] are > 10 µM and 25.3%. The matching figures for `COc1cncc(-c2ccc3[nH]nc(-c4nc5c(N6CCCCC6)ccnc5[nH]4)c3n2)c1` [Compound 612, 5-(5-Methoxypyridin-3-yl)-3-(7-(piperidin-1-yl)-3H-imidazo[4,5-b]pyridin-2-yl)-1H-pyrazolo[4,3-b]pyridine]: > 10 µM and 44.6%.

`Cc1cn(-c2ccnc3[nH]c(-c4n[nH]c5ccc(C6=CCNCC6)nc45)nc23)cn1` [Compound 618, 3-(7-(4-Methyl-1H-imidazol-1-yl)-3H-imidazo[4,5-b]pyridin-2-yl)-5-(1,2,3,6-tetrahydropyridin-4-yl)-1H-pyrazolo[4,3-b]pyridine] gave an EC50 of 1.55 µM. On the same count and under the same terms, under `Cc1cn(-c2ccnc3[nH]c(-c4n[nH]c5ccc(-c6cncc(N7CC(N)C7)n6)nc45)nc23)cn1` [Compound 622, 1-(6-(3-(7-(4-Methyl-1H-imidazol-1-yl)-3H-imidazo[4,5-b]pyridin-2-yl)-1H-pyrazolo[4,3-b]pyridin-5-yl)pyrazin-2-yl)azetidin-3-amine] stands 0.92 µM.
